This series can be described thus: Caco2 Permeability Assay. It counts as in vitro ADME. The conditions noted are these: human, Caco-2, pH 7.4; for Papp A→B at 2 h, 5 μM: apical to basolateral; for efflux ratio at 2 h, 5 μM: read-out: Efflux Ratio (ER). Here is the method:
Preparation of Caco-2 Cells: 50 μL and 25 mL of cell culture medium are added to each well of a Transwell® insert and reservoir, respectively. Then, the HTS Transwell® plates are incubated at 37° C., 5% CO2 for 1 hour before cell seeding. Caco-2 cell cells are diluted to 6.86×10^5 cells/mL with culture medium, and 50 μL of cell suspension are dispensed into the filter well of the 96-well HTS Transwell® plate. Cells are cultivated for 14-18 days in a cell culture incubator at 37° C., 5% CO2, 95% relative humidity. Cell culture medium is replaced every other day, beginning no later than 24 hours after initial plating.
Preparation of Stock Solutions: 10 mM stock solutions of test compounds arc prepared in DMSO. The stock solutions of positive controls are prepared in DMSO at the concentration of 10 mM. Digoxin and propranolol are used as control compounds in this assay.
Assessment of Cell Monolayer Integrity: Medium is removed from the reservoir and each Transwell® insert and is replaced with prewarmed fresh culture medium. Transepithelial electrical resistance (TEER) across the monolayer is measured using Millicell Epithelial Volt-Ohm measuring system (Millipore, USA). The Plate is returned to the incubator once the measurement is done. The TEER value is calculated according to the following equation: TEER measurement (ohms)×Area of membrane (cm^2)=TEER value (ohm·cm^2). A TEER value greater than 230 ohm·cm^2 indicates a well-qualified Caco-2 monolayer.
Assay Procedure: The Caco-2 plate is removed from the incubator and washed twice with pre-warmed HBSS (10 mM HEPES, pH 7.4), and then incubated at 37° C. for 30 minutes. The stock solutions of control compounds are diluted in DMSO to get 1 mM solutions and then diluted with HBSS (10 mM HEPES, pH 7.4) to get 5 μM working solutions. The stock solutions of the test compounds are diluted in DMSO to get 1 mM solutions and then diluted with HBSS (10 mM HEPES and 4% BSA, pH 7.4) to get 5 μM working solutions. The final concentration of DMSO in the incubation system is 0.5%. To determine the rate of drug transport in the apical to basolateral direction. 75 μL of 5 μM working solutions of test compounds are added to the Transwell® insert (apical compartment) and the wells in the receiver plate (basolateral compartment) are filled with 235 μL of HBSS (10 mM HEPES and 4% BSA, pH 7.4). To determine the rate of drug transport in the basolateral to apical direction, 235 μL of 5 μM working solutions of test compounds are added to the receiver plate wells (basolateral compartment) and then the Transwell® inserts (apical compartment) are filled with 75 μL of HBSS (10 mM HEPES and 4% BSA, pH 7.4). […]
A general note: Passage across Caco-2 layers is used to estimate intestinal permeability.

As for `CN(C)C(=O)Nc1cc(Oc2cnc3nc(Nc4cc(C(F)(F)F)cn(C)c4=O)n(C)c3c2C#N)ccn1` [Compound 1, 3-(4-((7-cyano-1-methyl-2-((1-methyl-2-oxo-5-(trifluoromethyl)-1,2-dihydropyridin-3-yl)amino)-1H-imidazo[4,5-b]pyridin-6-yl)oxy)pyridin-2-yl)-1,1-dimethylurea], the Papp A→B at 2 h, 5 μM was 7 ×10⁻⁶ cm/s and the efflux ratio at 2 h, 5 μM was 2 to 5.
With `CCN1CCN(Cc2ccc(Nc3nc4ccc(Oc5ccnc(NC(C)=O)c5)cc4n3C)cc2C(F)(F)F)CC1` [Compound R-1, reference compound], the apical-to-basolateral permeability (Papp A→B) at 2 h, 5 μM was 0.4 ×10⁻⁶ cm/s and the efflux ratio at 2 h, 5 μM lay in the range of 10 to 30.

By Papp A→B is commonly meant the apparent permeability from the apical to the basolateral side of a cell layer. The low end stands for slow passage, the high end for fast passage.

The record behind these values is patent US20240368157A1, “FORMS AND COMPOSITIONS OF A JAK2 INHIBITOR” (Ajax Therapeutics, Inc., priority 2023, published 2024).
